# Source: patent publication US12370235B2, “Synthetic, non-natural antimicrobial peptides inspired by Staphylococcus auricularis delta toxin” (University of Saskatchewan, priority 2021, dated 2025)
# Ends that are not written are not given here.
# Experiments:
# [1] = test system: Mannheimia haemolytica ATCC 33393; experiment: MIC, broth dilution; format: cell-based; settings: for MIC (μg/mL) M. haemolytica: Table 10, liquid broth; for MIC M. haemolytica: M. haemolytica ATCC 33393
# Method: (§1) MIC determination. MICs were measured using peptides with 95% purity. For bacterial studies, cation-adjusted Mueller Hinton (MH) broth was used as the growth medium whereas Yeast Peptone Dextrose (YPD; 10 g/L yeast extract, 20 g/L peptone, 20 g/L dextrose) was used for Candida spp. and other yeast. Microorganisms were diluted to an optical density of […] in MH or YPD broth and a 180 μl volume was mixed with 20 μl of peptide arrayed as a 2-fold dilution series in a flat-bottom 96-well microtitre plate. A control was performed using 20 μl of sterile water. Plates were incubated as standing cultures overnight at 37° C.
# (§2) Determination of minimum inhibitory concentrations. The MICs were measured for bioactive peptides identified from the initial screen. For bacterial studies, cation-adjusted Mueller Hinton (MH) broth was used as the growth medium whereas YPD was used for C. albicans. Bacterial cultures were diluted to a OD value of 6×10^−4 in MH broth and a 180 μl volume was mixed with 20 μl of peptide arrayed as 2-fold dilution series in a 96-well plate. For the positive control, 20 μl of sterile water was used. Plates were incubated as standing cultures overnight at 37° C. The lowest peptide concentration that resulted no observed microbial growth after an overnight treatment was defined as the MIC.
# The ability of STIP3 variants to inhibit the growth of Mannheimia haemolytica ATCC 33393 was evaluated. This included an alanine scan of STIP3-1 (FIG. 8 & Table 10) as well as 30 rationally-designed STIPs that were evaluated in the preceding Examples against other pathogens (Table 11). Substitutions at a greater number of sites were tolerated in the context of antimicrobial activity. Moreover, the inclusion of basic natural and unnatural amino acids (e.g. lysine, ornithine, and arginine) at positions 3, 4 and 11 (i.e. X1, X2, and X4 of SEQ ID NO: 32) to afford a more uniformly cationic peptide increased activity against M. haemolytica.
# [2] = test system: S. aureus ATCC 29213; experiment: MIC, broth dilution; format: cell-based, Staphylococcus aureus; settings: for MIC (μg/mL) S. aureus: liquid broth; for MIC S. aureus: S. aureus ATCC 29213
# Method: as §1, §2
# [3] = test system: M. luteus ATCC 4698; experiment: MIC, broth dilution; format: cell-based, Micrococcus luteus; settings: for MIC (μg/mL) M. luteus: Table 4, liquid broth; for MIC M. luteus: M. luteus ATCC 4698
# Method: as §1, §2
# [4] = test system: C. albicans MYA-2876; experiment: MIC, YPD broth; format: cell-based, Candida albicans; settings: Candida albicans MYA-2876
# Method: as §1, §2
Substance,MIC (μg/mL) M. haemolytica [1],MIC (μg/mL) S. aureus ([2]; Table 4),MIC (μg/mL) M. luteus [3] [µg/mL],MIC (μg/mL) S. aureus ([2]; Table 10),MIC M. haemolytica [1],MIC C. albicans [4],MIC S. aureus [2],MIC M. luteus [3] [µg/mL]
"TVGGLVKWILDTAKKFA [V13A, TVGGLVKWILDTAKKFA]",200 µg/mL,200 µg/mL,50,,,,,
"TVGGLVKWILDTVKKAA [F16A, TVGGLVKWILDTVKKAA]",> (the use of > indicates an MIC > 200 μg/mL; the maximum concentration tested),> (> = >200 μg/mL (maximum concentration tested)),200,> (the use of > indicates an MIC > 200 μg/mL; the maximum concentration tested),,,,
TVKSFVNLILDTVKKYAK [STIP8-1],,,,,> (the use of > indicates an MIC >200 μg/mL; the maximum concentration tested),100 µg/mL,> (the use of > indicates an MIC >200 μg/mL; the maximum concentration tested),100
TVKSFVNLILKTVKKYAK [STIP8-2],,,,,100 µg/mL,100 µg/mL,> (the use of > indicates an MIC >200 μg/mL; the maximum concentration tested),6.25
TVKSFVNLILKTVKKYAK-NH2 [STIP8-3],,,,,50 µg/mL,> (the use of > indicates an MIC >200 μg/mL; the maximum concentration tested),> (the use of > indicates an MIC >200 μg/mL; the maximum concentration tested),3.13
TVTKFVKLIAETVKKFTK [STIP9-1],,,,,200 µg/mL,100 µg/mL,> (the use of > indicates an MIC >200 μg/mL; the maximum concentration tested),50
TVTKFVKLIAKTVKKFTK [STIP9-2],,,,,100 µg/mL,25 µg/mL,> (the use of > indicates an MIC >200 μg/mL; the maximum concentration tested),6.25
TVTKFVKLIAKTVKKFTK-NH2 [STIP9-3],,,,,100 µg/mL,100 µg/mL,> (the use of > indicates an MIC >200 μg/mL; the maximum concentration tested),3.13
